{"source": "patent US20230310432A1", "about": "(JULIUS-MAXIMILIANS-UNIVERSITÄT WÜRZBURG, priority 2017, published 2023)", "key": {"[1]": {"tested_on": "CD19 CAR/4-1BB-T cells", "experiment": "Serum cytokine levels in NSG/Raji xenograft model (multiplex cytokine analysis)", "type": "in vivo, NSG mice"}, "[2]": {"tested_on": "activated CD19 CAR/CD28-T cells; Raji tumor cells", "experiment": "Raji tumor burden by bioluminescence imaging, function ON/OFF/ON (Example 8)", "type": "in vivo, NSG mice", "method": "The Institutional Animal Care and Use Committee of UKW approved all mouse experiments. NOD.Cg-Prkdc^scidIl2rg^tm1wjl/SzJ (NSG) mice (female, 6-8 week old) were purchased from Charles River (Sulzfeld, Germany). Mice were inoculated with 1×10^6 Raji/ffluc_GFP tumor cells via tail vein injection (i.v.). Mice were treated with 5×10^6 CAR-modified or control untransduced T-cells (CD4:CD8 ratio=1:1) via tail vein injection (i.v.). […] Tumor burden and distribution was analyzed by serial bioluminescence imaging on an IVIS Lumina imager (Perkin Elmer, Baesweiler, Germany): mice received i.p. injections of 0.3 mg/g luciferin and images were acquired 10 minutes after luciferin injection in small binning mode at an acquisition time of 1 s to 1 min to obtain unsaturated images. Data were analyzed using LivingImage Software (Caliper) and the average radiance (or photon flux) analyzed in regions of interest that encompassed the entire body of each individual mouse. Mice were sacrificed at the end of the experiment and human T cells in bone marrow, peripheral blood and spleen were analyzed by flow cytometry. The presence of (human) cytokines in serum was measured using multiplex cytokine analysis. […]\nRaji tumor burden was determined by bioluminescence imaging on day 7, day 10, day 12, day 14, day 17, and subsequently, once a week."}, "[3]": {"tested_on": "NFAT/GFP reporter in CD4+ T cells co-expressing the CD19 CAR with 4-1BB costimulatory domain", "experiment": "NFAT/GFP reporter assay during sequential stimulation", "type": "cell-based, human"}, "[4]": {"conditions": "cited from earlier work"}, "[5]": {"tested_on": "CD8+ T cells expressing a CD19 CAR with 4-1BB costimulation", "experiment": "Cytokine production and secretion (IFN-γ, IL-2 ELISA), co-culture with K562/CD19", "type": "cell-based, human", "conditions": "20 h"}, "[6]": {"tested_on": "CD8+ T cells expressing a SLAMF7-CAR with 4-1BB costimulation", "experiment": "Bioluminescence-based cytotoxicity assay, K562/SLAMF7 target cells", "type": "cell-based, human"}, "[7]": {"conditions": "dasatinib 100 nM added 2 hours after the start of the co-culture"}}, "note": "Where two headings read alike, the source gives them in different places.", "data": [{"smiles": "Cc1nc(Nc2ncc(C(=O)Nc3c(C)cccc3Cl)s2)cc(N2CCN(CCO)CC2)n1", "note": "[dasatinib]", "values": [{"measurement": "serum level of GM-CSF", "setting": "[1]; day +1, CAR-T cells and dasatinib (CAR/+)", "result": 6.4, "unit": "pg/mL"}, {"measurement": "serum level of IFN-γ", "setting": "[1]; day +1, CAR/+", "result": 13.4, "unit": "pg/mL"}, {"measurement": "serum level of IL-5", "setting": "[1]; day +1, CAR/+", "result": 21.4, "unit": "pg/mL"}, {"measurement": "serum level of TNF-α", "setting": "[1]; day +1, CAR/+", "result": 0.04, "unit": "pg/mL"}, {"measurement": "serum level of GM-CSF", "setting": "[1]; day +3, dasatinib discontinued", "result": 45.8, "unit": "pg/mL"}, {"measurement": "serum level of IFN-γ", "setting": "[1]; day +3, dasatinib discontinued", "result": 411.8, "unit": "pg/mL"}, {"measurement": "serum level of IL-2", "setting": "[1]; day +3, dasatinib discontinued", "result": 0.2, "unit": "pg/mL"}, {"measurement": "serum level of IL-5", "setting": "[1]; day +3, dasatinib discontinued", "result": 331.2, "unit": "pg/mL"}, {"measurement": "serum level of IL-6", "setting": "[1]; day +3, dasatinib discontinued", "result": 0.9, "unit": "pg/mL"}, {"measurement": "serum level of TNF-α", "setting": "[1]; day +3, dasatinib discontinued", "result": 0.9, "unit": "pg/mL"}, {"measurement": "mean reduction of BLI", "setting": "[2]; between day 12 and 14, previously treated with dasatinib", "result": 71, "unit": "%"}, {"measurement": "median BLI", "setting": "[2]; day 17, CAR/Dasa, 966 CAR/vehicle, 839 CAR alone", "result": 507}, {"measurement": "GFP MFI", "setting": "[3]; day 1, dasatinib present from the beginning", "result": 317}, {"measurement": "GFP MFI", "setting": "[3]; day 3, treated at 1 hour after assay set up, 2499 in untreated", "result": 326}, {"measurement": "GFP MFI", "setting": "[3]; day 3, treated from the beginning, 2499 in untreated", "result": 108}, {"measurement": "dasatinib concentration in mouse serum", "setting": "[4]; 5 mg/kg i.p., after each injection, based on known pharmacokinetics [23]", "result": "> 50", "unit": "nM"}, {"measurement": "window after each injection with dasatinib at that serum concentration", "setting": "[4]; 5 mg/kg i.p., based on known pharmacokinetics [23]", "result": "~6", "unit": "h"}, {"measurement": "total window with dasatinib present in mouse serum at that concentration", "setting": "[4]; 10 mg/kg i.p. every 6 hours, 6 doses, 3 hours prior to 33 hours after T-cell transfer", "result": 36, "unit": "h"}, {"measurement": "dasatinib concentration in mouse serum", "setting": "[4]; 10 mg/kg i.p. every 6 hours, 6 doses, based on known pharmacokinetics [23]", "result": "at least 100 nM"}, {"measurement": "residual IFN-γ production (untreated CAR-T cells=100%)", "setting": "[5]; [7]", "result": 51, "unit": "%"}, {"measurement": "residual IL-2 production (untreated CAR-T cells=100%)", "setting": "[5]; [7]", "result": 28, "unit": "%"}, {"measurement": "residual specific IFN-γ production compared to non-dasatinib treated CAR-T cells", "setting": "[5]; dasatinib ≥6.25 nM", "result": "less than 45%"}, {"measurement": "residual specific IL-2 production compared to non-dasatinib treated CAR-T cells", "setting": "[5]; dasatinib ≥6.25 nM", "result": "less than 60%"}, {"measurement": "residual specific IL-2 production compared to non-dasatinib treated CAR-T cells", "setting": "[5]; dasatinib ≥50 nM", "result": "less than 1%"}, {"measurement": "specific lysis of target cells", "setting": "[6]; dasatinib 20 nM, t=6 h, 63% by non-dasatinib treated", "result": 21, "unit": "%"}, {"measurement": "specific lysis of target cells", "setting": "[6]; dasatinib 20 nM, t=12 h, 83% by non-dasatinib treated", "result": 35, "unit": "%"}, {"measurement": "specific lysis of target cells", "setting": "[6]; dasatinib ≥40 nM, t=12 h, 83% by non-dasatinib treated", "result": "less than 10%"}, {"measurement": "specific lysis of target cells", "setting": "[6]; dasatinib ≥40 nM, up to t=6 h", "result": "less than 5.5%"}]}]}
